Reference: patent US20060057669A1, “Inactive transcription factor tif-ia and uses thereof” (priority 2002, published 2006)
Read-outs that look alike come from different tables or passages of the source.

Experiments:
Pol I transcription [1] = assay: Complementation of Pol I transcription in nuclear extracts from rapamycin-treated FM3A cells; assay type: biochemical
Protocol: (B) Complementation of transcriptional activity in nuclear extracts from rapamycin-treated cells. Transcription reactions contained nuclear extracts (30 μg) from untreated (NE) or rapamycin-treated (NERapa) FM3A cells. In lanes 3-7, fractions containing partially purified Pol I transcription factors were added to NERapa-containing reactions.
(C) TIF-IA activates transcription in nuclear extracts form rapamycin-treated cells. Reactions were complemented with either 1 μl (lanes 2 and 5) of cellular TIF-IA (PL-650 fraction) or 20 ng (lanes 3 and 6) of immunopurified recombinant TIF-IA that has been expressed in SF9 cells.
(A) mTOR rescues transcription in vitro. Pol I transcription was assayed in nuclear extracts from rapamycin-treated FM3A cells. Reactions were supplemented with 50 ng TIF-IA (lane 1) or 10 ng, 20 ng and 30 ng of HA-mTOR (lanes 3-5).
(B) S6K1 activates Pol I transcription in extracts from rapamycin-treated cells. NERapa was supplemented with 50 ng TIF-IA (lane 1) or 100, 150 and 200 ng of GST-S6K1 (lanes 3-5) or GST-S6K1dd (lanes 6-8).
Nuclear extracts were prepared from exponentially growing (8×10^5 cells/ml), density-arrested or PD98059-treated (CN Bioscience, Bad Soden, Germany) 40 μM, 0.5 hr) or rapamycin-treated FM3A cells (ATCC, Manassas, USA). 25 μl assays contained 50 ng of template DNA (pMr600/EcoRI), 30 μg nuclear extract proteins and 12 mM Hepes-KOH, [pH8.0], 0.1 mM EDTA, 5 mM MgCl2, 80 mM KCl, 10 mM creatine phosphate, 12% (v/v) glycerol, 0.66 mM each of ATP, GTP and CTP, 0.01 mM UTP and 0.5 μCi [α-^32P]UTP (5000 Ci/mmol). After incubation for 60 min at 30° C., RNA was extracted and analyzed on non-denaturing 5% polyacrylamide gels
mTOR and S6K1 were purified from HEK293T cells overexpressing HA-tagged mTOR or GST/myc-tagged S6K1, respectively. 5×10^6 cells were lysed in 0.8 ml IP buffer, centrifuged at 10,000×g for 20 min, and the supernatants were incubated for 4 hr at 4° C. with either 15 μg anti-HA antibodies bound to 20 μl protein G-agarose (for HA-mTOR) or 20 μl packed GST-glutathione beads (for GST-myc-S6K1). […]

Pol I = assay: Co-immunoprecipitation of Pol I with TIF-IA mutants from HEK293T cells; assay type: binding, human
Protocol: (B) A mutant that mimics phosphorylation of TIF-IA at S199 fails to interact with Pol I and TIF-IB. FLAG-tagged wild-type TIF-IA or the indicated point mutants were overexpressed in HEK293T cells and immunoprecipitated from cell lysates with anti-FLAG antibodies (M2 agarose). Co-precipitated Pol I and TIF-IB/SL1 were visualized on Western blots with anti-RPA116 and anti-TAFI110 antibodies.
Immunoprecipitations were carried out from human cells overexpressing FLAG-tagged TIF-IA. Cells were lysed in IP buffer, cleared by centrifugation at 10,000×g for 30 min, and the supernatants were incubated for 4 hr at 4° C. with anti-FLAG (M2) agarose (Sigma). To analyze the interaction of TIF-IA with TIF-IB/SL1, the immunoprecipitates were washed with IP buffer and TIF-IB/SL1 was visualized on immunoblots with α-TAFI110 antibodies. To monitor the interaction of TIF-IA with Pol I, the immunoprecipitates were washed with IP buffer containing 600 mM NaCl and Pol I was analyzed on Western blots using antibodies against the second largest subunit of Pol I (RPA116) or PAF67 (Seither et al., J. Biol. Chem. 382 (2001), 1163-1170).
Given the importance of mTOR-mediated alterations in the phosphorylation pattern on TIF-IA activity, one could predict that either phosphorylation of S199, dephosphorylation of S44 or both regulate the interaction of TIF-IA with the Pol I transcription apparatus. It was therefore examined whether the S→A or S→D point mutant(s) were capable of interacting with Pol I and/or TIF-IB/SL1. For this, TIF-IA was precipitated from cells overexpressing either FLAG-tagged wild-type TIF-IA or the respective S199 and S44 mutant(s), and co-precipitated Pol I and TIF-IB/SL1 were visualized on Western blots.

Pol I transcription [2] = assay: In vitro transcription: TIF-IA mutants added to nuclear extract from exponentially growing FM3A cells; assay type: biochemical, murine; settings: 20 and 40 ng added to 15 ug nuclear extract

TIF-IA: wild-type human transcription initiation factor TIF-IA, accession No. AJ272050
rescue of Pol I transcription in extracts from rapamycin-treated cells (Pol I transcription [1]): relieved rapamycin-mediated transcriptional repression
rescue of Pol I transcription in extracts from rapamycin-treated cells (Pol I transcription [1]; listed as recombinant TIF-IA): restored transcriptional activity
interaction with Pol I (co-precipitated RPA116) (Pol I): interacted with both Pol I and TIF-IB/SL1
effect on transcriptional activity of extracts from exponentially growing cells (Pol I transcription [2]): not stimulated by exogenous TIF-IA
